PubChem BioAssay AID2060624 (Molecular Pharmacology Branch, DTP, NCI, 2025)

System: 217524-143-R1-J4-PDC spheroids with HUVEC/MSC, viability
Experiment: Anticancer human tumor 217524-143-R1-J4-PDC patient-derived pancreatic carcinoma cell line growth inhibition [CLK]
Conditions: for IC50: curve of first compound; for viability, T/C: stronger effect = lower value
Method in brief: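 Patient-derived tumor cells grown as complex spheroids with HUVEC endothelial cells and mesenchymal stem cells, treated with drug combinations. Concentrations descend in half-log steps from near clinical Cmax, or from 10 microM if Cmax unknown.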

[1] = second compound 0.0316 µM, first compound 0.0316 µM
[2] = second compound 0.0316 µM, first compound 0.1 µM
[3] = second compound 0.0316 µM, first compound 0.316 µM
[4] = second compound 0.0316 µM, first compound 1 µM
[5] = second compound 0.1 µM, first compound 0.0316 µM
[6] = second compound 0.1 µM, first compound 0.1 µM
[7] = second compound 0.1 µM, first compound 0.316 µM
[8] = second compound 0.1 µM, first compound 1 µM
[9] = second compound 0.316 µM, first compound 0.0316 µM
[10] = second compound 0.316 µM, first compound 0.1 µM
[11] = second compound 0.316 µM, first compound 0.316 µM
[12] = second compound 0.316 µM, first compound 1 µM
[13] = second compound 1 µM, first compound 0.0316 µM
[14] = second compound 1 µM, first compound 0.1 µM
[15] = second compound 1 µM, first compound 0.316 µM
[16] = second compound 1 µM, first compound 1 µM
[17] = second compound 3.16 µM, first compound 0.0316 µM
[18] = second compound 3.16 µM, first compound 0.1 µM
[19] = second compound 3.16 µM, first compound 0.316 µM
[20] = second compound 3.16 µM, first compound 1 µM
[21] = second compound 10 µM, first compound 0.0316 µM
[22] = second compound 10 µM, first compound 0.1 µM
[23] = second compound 10 µM, first compound 0.316 µM
[24] = second compound 10 µM, first compound 1 µM
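Note: spheroids exposed to agents for seven days before reading.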
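Throughout, for viability, T/C: 100% = DMSO vehicle control viability.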

## C=CC(=O)Nc1cc(Nc2nccc(-c3cn(C)c4ccccc34)n2)c(OC)cc1N(C)CCN(C)C + CNC(=O)c1ccc(Nc2nc(OC3CCCC3)c3c(-c4ccc5nc(C)oc5c4)c[nH]c3n2)c(OC)c1
Second compound 0.0316 µM
  IC50: 61.3 nM
Second compound 0.1 µM
  IC50: < 0.949 nM
Second compound 0.316 µM
  IC50: < 0.949 nM
Second compound 1 µM
  IC50: < 0.949 nM
Second compound 3.16 µM
  IC50: < 0.949 nM
Second compound 10 µM
  IC50: < 0.949 nM
Second compound 0.0316 µM, first compound 0.000949 µM
  viability, T/C: 92%
Second compound 0.0316 µM, first compound 0.003 µM
  viability, T/C: 83.9%
Second compound 0.0316 µM, first compound 0.00949 µM
  viability, T/C: 66.6%
Second compound 0.0316 µM, first compound 0.03 µM
  viability, T/C: 64.7%
Second compound 0.0316 µM, first compound 0.0949 µM
  viability, T/C: 41.2%
Second compound 0.0316 µM, first compound 0.3 µM
  viability, T/C: 31.4%
Second compound 0.1 µM, first compound 0.000949 µM
  viability, T/C: 47.9%
Second compound 0.1 µM, first compound 0.003 µM
  viability, T/C: 38.6%
Second compound 0.1 µM, first compound 0.00949 µM
  viability, T/C: 41.9%
Second compound 0.1 µM, first compound 0.03 µM
  viability, T/C: 31.2%
Second compound 0.1 µM, first compound 0.0949 µM
  viability, T/C: 22%
Second compound 0.1 µM, first compound 0.3 µM
  viability, T/C: 17.1%
Second compound 0.316 µM, first compound 0.000949 µM
  viability, T/C: 39.3%
Second compound 0.316 µM, first compound 0.003 µM
  viability, T/C: 39.4%
Second compound 0.316 µM, first compound 0.00949 µM
  viability, T/C: 34%
Second compound 0.316 µM, first compound 0.03 µM
  viability, T/C: 28.7%
Second compound 0.316 µM, first compound 0.0949 µM
  viability, T/C: 16%
Second compound 0.316 µM, first compound 0.3 µM
  viability, T/C: 16%
Second compound 1 µM, first compound 0.000949 µM
  viability, T/C: 31.5%
Second compound 1 µM, first compound 0.003 µM
  viability, T/C: 28.3%
Second compound 1 µM, first compound 0.00949 µM
  viability, T/C: 25.9%
Second compound 1 µM, first compound 0.03 µM
  viability, T/C: 18%
Second compound 1 µM, first compound 0.0949 µM
  viability, T/C: 13.3%
Second compound 1 µM, first compound 0.3 µM
  viability, T/C: 9.6%
Second compound 3.16 µM, first compound 0.000949 µM
  viability, T/C: 31.4%
Second compound 3.16 µM, first compound 0.003 µM
  viability, T/C: 28.3%
Second compound 3.16 µM, first compound 0.00949 µM
  viability, T/C: 24.9%
Second compound 3.16 µM, first compound 0.03 µM
  viability, T/C: 19.2%
Second compound 3.16 µM, first compound 0.0949 µM
  viability, T/C: 12.5%
Second compound 3.16 µM, first compound 0.3 µM
  viability, T/C: 8.29%
Second compound 10 µM, first compound 0.000949 µM
  viability, T/C: 26.6%
Second compound 10 µM, first compound 0.003 µM
  viability, T/C: 22.3%
Second compound 10 µM, first compound 0.00949 µM
  viability, T/C: 24.7%
Second compound 10 µM, first compound 0.03 µM
  viability, T/C: 20.1%
Second compound 10 µM, first compound 0.0949 µM
  viability, T/C: 13%
Second compound 10 µM, first compound 0.3 µM
  viability, T/C: 9.91%

## CCN1CCN(Cc2ccc(Nc3ncc(F)c(-c4cc(F)c5nc(C)n(C(C)C)c5c4)n3)nc2)CC1 + CNC(=O)c1ccc(Nc2nc(OC3CCCC3)c3c(-c4ccc5nc(C)oc5c4)c[nH]c3n2)c(OC)c1
Second compound 0.0316 µM
  IC50: 133 nM
Second compound 0.1 µM
  IC50: < 3.16 nM
Second compound 0.316 µM
  IC50: < 3.16 nM
Second compound 1 µM
  IC50: < 3.16 nM
Second compound 3.16 µM
  IC50: < 3.16 nM
Second compound 10 µM
  IC50: < 3.16 nM
Second compound 0.0316 µM, first compound 0.00316 µM
  viability, T/C: 84.8%
Second compound 0.0316 µM, first compound 0.01 µM
  viability, T/C: 71.2%
[1]
  viability, T/C: 68.4%
[2]
  viability, T/C: 52.4%
[3]
  viability, T/C: 40%
[4]
  viability, T/C: 38.4%
Second compound 0.1 µM, first compound 0.00316 µM
  viability, T/C: 50.3%
Second compound 0.1 µM, first compound 0.01 µM
  viability, T/C: 42%
[5]
  viability, T/C: 35.6%
[6]
  viability, T/C: 27.8%
[7]
  viability, T/C: 37.2%
[8]
  viability, T/C: 36%
Second compound 0.316 µM, first compound 0.00316 µM
  viability, T/C: 46.8%
Second compound 0.316 µM, first compound 0.01 µM
  viability, T/C: 34.8%
[9]
  viability, T/C: 30.8%
[10]
  viability, T/C: 25.7%
[11]
  viability, T/C: 30.5%
[12]
  viability, T/C: 32%
Second compound 1 µM, first compound 0.00316 µM
  viability, T/C: 28.4%
Second compound 1 µM, first compound 0.01 µM
  viability, T/C: 26.2%
[13]
  viability, T/C: 28.5%
[14]
  viability, T/C: 25.2%
[15]
  viability, T/C: 25.2%
[16]
  viability, T/C: 26.3%
Second compound 3.16 µM, first compound 0.00316 µM
  viability, T/C: 25.3%
Second compound 3.16 µM, first compound 0.01 µM
  viability, T/C: 24.8%
[17]
  viability, T/C: 23.9%
[18]
  viability, T/C: 21.1%
[19]
  viability, T/C: 21.6%
[20]
  viability, T/C: 22.2%
Second compound 10 µM, first compound 0.00316 µM
  viability, T/C: 24.3%
Second compound 10 µM, first compound 0.01 µM
  viability, T/C: 23%
[21]
  viability, T/C: 23.8%
[22]
  viability, T/C: 21.9%
[23]
  viability, T/C: 21.4%
[24]
  viability, T/C: 26.4%

## Nc1ccccc1NC(=O)c1ccc(CNC(=O)OCc2cccnc2)cc1 + CNC(=O)c1ccc(Nc2nc(OC3CCCC3)c3c(-c4ccc5nc(C)oc5c4)c[nH]c3n2)c(OC)c1
Second compound 0.0316 µM
  IC50: 4960 nM
Second compound 0.1 µM
  IC50: 3850 nM
Second compound 0.316 µM
  IC50: < 31.6 nM
Second compound 1 µM
  IC50: < 31.6 nM
Second compound 3.16 µM
  IC50: < 31.6 nM
Second compound 10 µM
  IC50: < 31.6 nM
[1]
  viability, T/C: 109%
[2]
  viability, T/C: 99%
[3]
  viability, T/C: 97.3%
[4]
  viability, T/C: 87.7%
Second compound 0.0316 µM, first compound 3.16 µM
  viability, T/C: 59.2%
Second compound 0.0316 µM, first compound 10 µM
  viability, T/C: 34%
[5]
  viability, T/C: 50.3%
[6]
  viability, T/C: 50.2%
[7]
  viability, T/C: 57.3%
[8]
  viability, T/C: 62.1%
Second compound 0.1 µM, first compound 3.16 µM
  viability, T/C: 53%
Second compound 0.1 µM, first compound 10 µM
  viability, T/C: 32%
[9]
  viability, T/C: 37.9%
[10]
  viability, T/C: 43%
[11]
  viability, T/C: 47.8%
[12]
  viability, T/C: 60.5%
Second compound 0.316 µM, first compound 3.16 µM
  viability, T/C: 53.2%
Second compound 0.316 µM, first compound 10 µM
  viability, T/C: 29.9%
[13]
  viability, T/C: 35.8%
[14]
  viability, T/C: 35.9%
[15]
  viability, T/C: 49.5%
[16]
  viability, T/C: 46.2%
Second compound 1 µM, first compound 3.16 µM
  viability, T/C: 38.4%
Second compound 1 µM, first compound 10 µM
  viability, T/C: 22.3%
[17]
  viability, T/C: 33.1%
[18]
  viability, T/C: 30.3%
[19]
  viability, T/C: 34.6%
[20]
  viability, T/C: 45%
Second compound 3.16 µM, first compound 3.16 µM
  viability, T/C: 40.3%
Second compound 3.16 µM, first compound 10 µM
  viability, T/C: 19.3%
[21]
  viability, T/C: 30.4%
[22]
  viability, T/C: 25.9%
[23]
  viability, T/C: 39.4%
[24]
  viability, T/C: 38.6%
Second compound 10 µM, first compound 3.16 µM
  viability, T/C: 37.4%
Second compound 10 µM, first compound 10 µM
  viability, T/C: 13.3%
